The source of these data is patent publication US20260209222A1, “CBL-B MODULATORS AND USES THEREOF” (Nimbus Clio, Inc., priority 2022, published 2026).

The subject of assay [1] is Recombinant human c-Cbl (aa 47-435). In words: c-Cbl Biochemical Assay (TR-FRET). Particulars: ratio from the Cbl-b and c-Cbl TR-FRET biochemical assays. The protocol: c-Cbl Biochemical Assay (TR-FRET)
Recombinant human c-Cbl (aa 47-435) was expressed in E coli, purified and biotinylated in vitro. The protein was diluted to 12 nM in freshly prepared assay buffer consisting of 50 mM HEPES, pH 7.0, 100 mM NaCl, 5 mM MgCl2, 0.01% Triton-X 100, 0.01% BSA and 1 mM DTT. Recombinant human Src (aa 254-536)-GSSGSS-Zap-70 (aa 281-297) fusion protein was expressed in E coli and purified. Protein was diluted in assay buffer to 5-20 nM and ATP was added to 1 mM. Recombinant human UBE2D2(C85K) was expressed in E coli, purified and ubiquitinated and Bodipy labelled in vitro. Protein was diluted to 200 nM in assay buffer without MgCl2 (or Cisbio PPI buffer). Streptavidin-Terbium was added to 2 nM and EDTA to 10 mM, to provide a binding assay mix. Compounds were dissolved in DMSO and diluted to prepare a ten-point half log dilution series. 100 nl of each compound concentration was dispensed in duplicate in a 384 well black assay plate using acoustic dispensing. Wells for maximum signal controls received 100 nl of DMSO only and wells for minimum controls received 100 nl of a reference inhibitor compound at a final assay concentration of 100 mM to produce 100% inhibition. 5 μl of diluted c-Cbl enzyme was added to all wells of the assay plate and incubated at RT for 30 min. The enzyme assay was initiated by addition of 5 d of Src-Zap/ATP mix to all wells, and the plate incubated at RT for 60-90 min. The enzyme reaction was terminated and the binding reaction was initiated by adding 10p of binding assay mix to all wells and incubating the plate at RT for 60 min prior to assay read. Final assay conditions consisted of 6 nM c-Cbl. 2.5-10 nM Src-Zap70, 0.5 mM ATP. 1% (v/v) DMSO (enzyme reaction) and 100 nM UBE2D2(C85K)-Ub-FL-BODIPY, 5 mM EDTA, 1 nM Streptavidin-Tb (binding reaction). The HTRF assay signal was measured at 520 nm on an Envision plate reader, with reference signal at 485 or 620 nm. Data was normalized using maximum and minimum assay controls: % Inhibition=100−(100*((maximum control)−unknown)/(maximum control−minimum control)). A 4-parameter dose-response equation was used to fit the normalized dose-response data and derive an IC50 for test compounds.
For orientation: Time-resolved FRET reads energy transfer from a long-lived donor to a nearby acceptor.

For assay [2], the target named is T1, Recombinant human Cbl-b (aa 36-427) (Homo sapiens, UniProt Q13191).
T1 construct: Recombinant human Cbl-b (aa 36-427) was expressed in E coli; biotin (biotinylated in vitro); made in house; host or cells: E. coli
As to the kind of experiment: Cbl-b Biochemical Assay (TR-FRET). To be noted: 6 nM Cbl-b, 1-2.5 nM Src-Zap70, 0.5 mM ATP; HTRF signal at 520 nm. The protocol:
Cbl-b Biochemical Assay (TR-FRET)
Recombinant human Cbl-b (aa 36-427) was expressed in E coli, purified and biotinylated in vitro. The protein was diluted to 12 nM in freshly prepared assay buffer consisting of 50 mM HEPES, pH 7.0, 100 mM NaCl, 5 mM MgCl2, 0.01% Triton-X 100, 0.01% BSA and 1 mM DTT. Recombinant human Src (aa 254-536)-GSSGSS-Zap-70 (aa 281-297) fusion protein was expressed in E coli and purified. Protein was diluted in assay buffer to 2-5 nM and supplemented with ATP to 1 mM. Fluorescein-BODIPY labeled UBED2D(C85K)-Ub was prepared by conjugating ubiquitin (Ub) labeled at its N-terminus with Fluorescein-BODIPY maleimide (ThermoFisher Catalog no B10250) to E coli expressed and purified UBED2D(C85K) [see Dou et al Nature Structural and Molecular Biology 8: 982-987, 2013]. Recombinant human UBE2D2(C85K) was expressed in E coli, purified and ubiquitinated and Bodipy labelled in vitro. Protein was diluted to 200 nM in assay buffer without MgCl2 (or Cisbio PPI buffer). Streptavidin-Terbium was added to 2 nM and EDTA to 10 mM, to provide a binding assay mix. Compounds were dissolved in DMSO and diluted to prepare a ten-point dilution series. 100 nl of each compound concentration was dispensed in duplicate in a 384 well black assay plate using acoustic dispensing. Wells for maximum signal controls received 100 nl of DMSO only and wells for minimum signal controls received 100 nl of a reference inhibitor compound at a final assay concentration of 100 mM to produce 100% inhibition. 5 μl of diluted Cbl-b enzyme was added to all wells of the assay plate and incubated at RT for 30-60 min. The enzyme assay was initiated by addition of 5 μl of Src-Zap/ATP mix to all wells, and the plate incubated at RT for 60 min. The enzyme reaction was terminated and the binding reaction was initiated by adding 10p of binding assay mix to all wells and incubating the plate at RT for 60 min prior to assay read. Final assay conditions consisted of 6 nM Cbl-b, 1-2.5 nM Src-Zap70, 0.5 mM ATP, 1% (v/v) DMSO (enzyme reaction) and 100 nM UBE2D2(C85K)-Ub-FL-BODIPY, 5 mM EDTA, 1 nM Streptavidin-Tb (binding reaction). The HTRF assay signal was measured at 520 nm on an Envision plate reader, with reference signal at 485 or 620 nm. Data was normalized using maximum and minimum assay controls: % Inhibition=100−(100*((maximum control)−unknown)/(maximum control−minimum control)). A 4-parameter dose-response equation was used to fit the normalized dose-response data and derive an IC50 for test compounds.

T1 sequence (Q13191 36-427): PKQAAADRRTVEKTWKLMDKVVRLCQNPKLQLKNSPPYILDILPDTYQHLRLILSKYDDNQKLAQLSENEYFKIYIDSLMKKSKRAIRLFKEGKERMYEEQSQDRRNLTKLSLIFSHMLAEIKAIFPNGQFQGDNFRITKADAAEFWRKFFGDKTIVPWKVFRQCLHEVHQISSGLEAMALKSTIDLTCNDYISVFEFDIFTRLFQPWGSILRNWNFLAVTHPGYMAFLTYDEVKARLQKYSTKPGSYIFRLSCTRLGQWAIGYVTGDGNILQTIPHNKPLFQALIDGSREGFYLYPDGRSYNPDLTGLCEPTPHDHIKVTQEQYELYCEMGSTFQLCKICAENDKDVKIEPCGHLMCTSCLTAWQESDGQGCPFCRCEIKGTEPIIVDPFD

For orientation: IC50 means the concentration that inhibits the measured activity by half. For the compound `C[C@H]1CCCN(Cc2cc(C(F)(F)F)c3oc(-c4cccc([C@H](c5nncn5C)C5COC5)c4)nc3c2)C1` [I-52], the “Cbl-b/c-Cbl Selectivity” value in assay [1] was found to be 7. The IC50 in assay [2] was 200 to 5000 nM.

For `CO[C@@H]1CCCN(Cc2cc(C(F)(F)F)c3oc(-c4cccc([C@]5(c6nncn6C)C[C@@H](C)C5)c4)nc3c2)C1` [I-7], the “Cbl-b/c-Cbl Selectivity” value in assay [1] turned out to be 12. Further, in assay [2], the IC50 fell in the range of 200 to 5000 nM.

As to `C[C@H]1CCCN(Cc2cc(C(F)(F)F)c3oc(-c4cccc([C@@H](c5nncn5C)[C@H]5C[C@H](C(F)(F)F)C5)c4)nc3c2)C1` [I-58], the “Cbl-b/c-Cbl Selectivity” value in assay [1] amounted to 4. In addition, the IC50 in assay [2] is over 5000 nM.

As for `Cn1cnnc1-c1cc(F)ccc1-c1cc(NCCC#N)nc(-c2nc3cc(CO)cc(C(F)(F)F)c3o2)c1` [I-14], the “Cbl-b/c-Cbl Selectivity” value in assay [1] stood at 7. Moreover, the IC50 in assay [2] lay in the range of 200 to 5000 nM.

Consider `C[C@H]1CCCN(Cc2cc(C(F)(F)F)c3oc(-c4cccc(C(c5nncn5C)C5COC5)c4)nc3c2)C1` (some centres unmarked) [I-51], for which, in assay [1], the “Cbl-b/c-Cbl Selectivity” value is on record as 7. Further, the IC50 in assay [2] was in the range of 200 to 5000 nM.

Regarding `CN(Cc1cc(C(F)(F)F)c2oc(-c3cc(-c4cc(C#N)ccc4-c4nncn4C)cc(NCC4(CC#N)CC4)n3)nc2c1)[C@@H]1CCC[C@@H]1O` [I-49], the “Cbl-b/c-Cbl Selectivity” value in assay [1] is given as 3. The IC50 in assay [2] is under 200 nM.

Turning to `Cn1cnnc1[C@]1(c2cccc(-c3nc4cc(CN5CCC6(CC6)C5)cc(C(F)(F)F)c4o3)c2)C[C@H](C)C1` [I-9, 5-{5-Azaspiro[2.4]heptan-5-ylmethyl}-2-{3-[(1r,3s)-3-methyl-1-(4-methyl-1,2,4-triazol-3-yl)cyclobutyl]phenyl}-7-(trifluoromethyl)-1,3-benzoxazole], the “Cbl-b/c-Cbl Selectivity” value in assay [1] is 18. For the same compound, the IC50 in assay [2] was under 200 nM.

For the compound `C[C@H]1CCCN(Cc2cc(C(F)(F)F)c3oc(-c4cccc([C@@H](c5nncn5C)C5CCC5)c4)nc3c2)C1` [I-34], in assay [1], the “Cbl-b/c-Cbl Selectivity” value amounted to 4. Also, the IC50 in assay [2] was over 5000 nM.

In the case of `Cn1cnnc1[C@@H](c1cccc(-c2nc3cc(CN4CCC5(CCC5)C4)cc(C(F)(F)F)c3o2)c1)[C@H]1C[C@H](C(F)(F)F)C1` [I-61], the IC50 in assay [2] is over 5000 nM.

In the case of `C[C@H]1CCCN(Cc2cc(C(F)(F)F)c3oc(-c4cccc([C@@H](c5nncn5C)[C@H]5C[C@@H](C(F)(F)F)C5)c4)nc3c2)C1` [I-56], the “Cbl-b/c-Cbl Selectivity” value in assay [1] stood at 5. Besides, the IC50 in assay [2] was over 5000 nM.

As for `Cn1cnnc1-c1ccc(C#N)cc1-c1cc(NCC2(CC#N)CC2)nc(-c2nc3cc(CN[C@@H]4CCC[C@@H]4O)cc(C(F)(F)F)c3o2)c1` [I-27], the “Cbl-b/c-Cbl Selectivity” value in assay [1] is listed as 1. In assay [2], the IC50 was under 200 nM.

On to `Cn1cnnc1-c1ccc(C#N)cc1-c1cc(NCCC#N)nc(-c2nc3cc(CNCC(C)(C)O)cc(C(F)(F)F)c3o2)c1` [I-15, 3-{2-[(2-Cyanoethyl)amino]-6-(5-{[(2-hydroxy-2-methylpropyl)amino]methyl}-7-(trifluoromethyl)-1,3-benzoxazol-2-yl)pyridin-4-yl}-4-(4-methyl-1,2,4-triazol-3-yl)benzonitrile], for which the “Cbl-b/c-Cbl Selectivity” value in assay [1] is 7. In addition, in assay [2], the IC50 is under 200 nM.

Regarding `Cn1cnnc1-c1ccccc1-c1cc(NCCCC#N)nc(-c2nc3cc(CNCC(C)(C)O)cc(C(F)(F)F)c3o2)c1` [I-55, 4-((6-(5-(((2-Hydroxy-2-methylpropyl)amino)methyl)-7-(trifluoromethyl)benzo[d]oxazol-2-yl)-4-(2-(4-methyl-4H-1,2,4-triazol-3-yl)phenyl)pyridin-2-yl)amino)butanenitrile], in assay [1], the “Cbl-b/c-Cbl Selectivity” value was determined as 11. The IC50 in assay [2] is under 200 nM.

As for `Cn1cnnc1[C@@H](c1cccc(-c2nc3cc(CN4CCC5(CCC5)C4)cc(C(F)(F)F)c3o2)c1)[C@H]1C[C@@H](C(F)(F)F)C1` [I-63], in assay [1], the “Cbl-b/c-Cbl Selectivity” value came out at 13. In assay [2], the IC50 fell in the range of 200 to 5000 nM.

As for `CN(Cc1cc(C(F)(F)F)c2oc(-c3cccc([C@]4(c5nncn5C)C[C@@H](C)C4)c3)nc2c1)CC1CCC1` [I-10, 1-Cyclobutyl-N-methyl-N-((2-(3-((1s,3s)-3-methyl-1-(4-methyl-4H-1,2,4-triazol-3-yl)cyclobutyl)phenyl)-7-(trifluoromethyl)benzo[d]oxazol-5-yl)methyl)methanamine], the “Cbl-b/c-Cbl Selectivity” value in assay [1] stood at 10. Besides, in assay [2], the IC50 is under 200 nM.

As for `C[C@H]1CCCN(Cc2cc(C(F)(F)F)c3oc(-c4cccc([C@H](c5nncn5C)C5CCC5)c4)nc3c2)C1` (single isomer, unassigned) [I-33], the “Cbl-b/c-Cbl Selectivity” value in assay [1] was 10. Moreover, the IC50 in assay [2] was under 200 nM.

Turning to `Cn1cnnc1-c1ccc(C(F)(F)F)cc1-c1cc(NCCCC#N)nc(-c2nc3cc(CNCC4CC4)cc(C(F)(F)F)c3o2)c1` [I-54, 4-{[6-(5-{[(cyclopropylmethyl)amino]methyl}-7-(trifluoromethyl)-1,3-benzoxazol-2-yl)-4-[2-(4-methyl-1,2,4-triazol-3-yl)-5-(trifluoromethyl)phenyl]pyridin-2-yl]amino}butanenitrile; formic acid], in assay [1], the “Cbl-b/c-Cbl Selectivity” value is 7. The IC50 in assay [2] was over 5000 nM.

For the compound `Cn1cnnc1[C@H](c1cccc(-c2nc3cc(CN4CCC5(CCC5)C4)cc(C(F)(F)F)c3o2)c1)[C@H]1C[C@H](C(F)(F)F)C1` [I-62], the “Cbl-b/c-Cbl Selectivity” value in assay [1] is 2. In addition, the IC50 in assay [2] is over 5000 nM.

Turning to `Cn1cnnc1[C@H](c1cccc(-c2nc3cc(CN4CCC5(CCC5)C4)cc(C(F)(F)F)c3o2)c1)[C@H]1C[C@@H](C(F)(F)F)C1` [I-60], in assay [1], the “Cbl-b/c-Cbl Selectivity” value was 1. Also, in assay [2], the 50% inhibitory concentration (IC50) is over 5000 nM.

Consider `C[C@H]1CCCN(Cc2cc(C(F)(F)F)c3oc(-c4cccc(C(c5nncn5C)C5CCC5)c4)nc3c2)C1` (some centres unmarked) [I-48], for which the “Cbl-b/c-Cbl Selectivity” value in assay [1] is on record as 9. Also, the IC50 in assay [2] is under 200 nM.

Consider `Cn1cnnc1-c1cc(F)ccc1-c1cc(NCCC#N)nc(-c2nc3cc(CN4CCC5(CC5)C4)cc(C(F)(F)F)c3o2)c1` [I-12, 3-{[6-(5-{5-azaspiro[2.4]heptan-5-ylmethyl}-7-(trifluoromethyl)-1,3-benzoxazol-2-yl)-4-[4-fluoro-2-(4-methyl-1,2,4-triazol-3-yl)phenyl]pyridin-2-yl]amino}propanenitrile], for which the “Cbl-b/c-Cbl Selectivity” value in assay [1] is on record as 7. The IC50 in assay [2] is under 200 nM.
